The IC50 is the midpoint of a concentration-inhibition curve.

Calls of active or inactive are those of the source.

This is an account of results in ChEMBL document CHEMBL4184209, “Identification and initial optimization of inhibitors of Clostridium difficile (C. difficile) toxin B (TcdB)” (Bioorg Med Chem Lett, 2018).

The subject of one series is Clostridioides difficile. Nature of the series: Effect on growth of Clostridium difficile at 0.5 to 100 uM incubated for 24 hrs under anaerobic conditions by spectrophotometry. The format is functional, organism-based.
A further series addresses Toxin B (Clostridioides difficile, UniProt P18177). Nature of the series: Inhibition of C-terminal 6-His tagged recombinant Clostridium difficile toxin B catalytic fragment (Met1 to Leu543 residues) assessed as reduction in glucosyltransferase domain UDP-glucose hydrolysis activity using UDP-glucose and ADP Alexa633 tracer incubated fore 3 hrs by fluorescence polarization assay. (In general: Fluorescence polarisation rises when a labelled molecule tumbles more slowly, as on binding a larger partner.)

The next series concerns Bifidobacterium longum. Nature of the series: Effect on growth of Bifidobacterium longum at 0.5 to 100 uM incubated for 24 hrs under anaerobic conditions by spectrophotometry. It counts as organism-based.
For another series, the system named is Bacteroides fragilis. Nature of the series: Effect on growth of Bacteroides fragilis at 0.5 to 100 uM incubated for 48 hrs under anaerobic conditions by spectrophotometry. The format is organism-based.
In series [1] the test system is Limosilactobacillus reuteri. Put plainly: Effect on growth of Lactobacillus reuteri at 0.5 to 100 uM incubated for 24 hrs under anaerobic conditions by spectrophotometry. The format is organism-based.

Toxin B, sequence (P18177 whole entry, the tested form may be a part): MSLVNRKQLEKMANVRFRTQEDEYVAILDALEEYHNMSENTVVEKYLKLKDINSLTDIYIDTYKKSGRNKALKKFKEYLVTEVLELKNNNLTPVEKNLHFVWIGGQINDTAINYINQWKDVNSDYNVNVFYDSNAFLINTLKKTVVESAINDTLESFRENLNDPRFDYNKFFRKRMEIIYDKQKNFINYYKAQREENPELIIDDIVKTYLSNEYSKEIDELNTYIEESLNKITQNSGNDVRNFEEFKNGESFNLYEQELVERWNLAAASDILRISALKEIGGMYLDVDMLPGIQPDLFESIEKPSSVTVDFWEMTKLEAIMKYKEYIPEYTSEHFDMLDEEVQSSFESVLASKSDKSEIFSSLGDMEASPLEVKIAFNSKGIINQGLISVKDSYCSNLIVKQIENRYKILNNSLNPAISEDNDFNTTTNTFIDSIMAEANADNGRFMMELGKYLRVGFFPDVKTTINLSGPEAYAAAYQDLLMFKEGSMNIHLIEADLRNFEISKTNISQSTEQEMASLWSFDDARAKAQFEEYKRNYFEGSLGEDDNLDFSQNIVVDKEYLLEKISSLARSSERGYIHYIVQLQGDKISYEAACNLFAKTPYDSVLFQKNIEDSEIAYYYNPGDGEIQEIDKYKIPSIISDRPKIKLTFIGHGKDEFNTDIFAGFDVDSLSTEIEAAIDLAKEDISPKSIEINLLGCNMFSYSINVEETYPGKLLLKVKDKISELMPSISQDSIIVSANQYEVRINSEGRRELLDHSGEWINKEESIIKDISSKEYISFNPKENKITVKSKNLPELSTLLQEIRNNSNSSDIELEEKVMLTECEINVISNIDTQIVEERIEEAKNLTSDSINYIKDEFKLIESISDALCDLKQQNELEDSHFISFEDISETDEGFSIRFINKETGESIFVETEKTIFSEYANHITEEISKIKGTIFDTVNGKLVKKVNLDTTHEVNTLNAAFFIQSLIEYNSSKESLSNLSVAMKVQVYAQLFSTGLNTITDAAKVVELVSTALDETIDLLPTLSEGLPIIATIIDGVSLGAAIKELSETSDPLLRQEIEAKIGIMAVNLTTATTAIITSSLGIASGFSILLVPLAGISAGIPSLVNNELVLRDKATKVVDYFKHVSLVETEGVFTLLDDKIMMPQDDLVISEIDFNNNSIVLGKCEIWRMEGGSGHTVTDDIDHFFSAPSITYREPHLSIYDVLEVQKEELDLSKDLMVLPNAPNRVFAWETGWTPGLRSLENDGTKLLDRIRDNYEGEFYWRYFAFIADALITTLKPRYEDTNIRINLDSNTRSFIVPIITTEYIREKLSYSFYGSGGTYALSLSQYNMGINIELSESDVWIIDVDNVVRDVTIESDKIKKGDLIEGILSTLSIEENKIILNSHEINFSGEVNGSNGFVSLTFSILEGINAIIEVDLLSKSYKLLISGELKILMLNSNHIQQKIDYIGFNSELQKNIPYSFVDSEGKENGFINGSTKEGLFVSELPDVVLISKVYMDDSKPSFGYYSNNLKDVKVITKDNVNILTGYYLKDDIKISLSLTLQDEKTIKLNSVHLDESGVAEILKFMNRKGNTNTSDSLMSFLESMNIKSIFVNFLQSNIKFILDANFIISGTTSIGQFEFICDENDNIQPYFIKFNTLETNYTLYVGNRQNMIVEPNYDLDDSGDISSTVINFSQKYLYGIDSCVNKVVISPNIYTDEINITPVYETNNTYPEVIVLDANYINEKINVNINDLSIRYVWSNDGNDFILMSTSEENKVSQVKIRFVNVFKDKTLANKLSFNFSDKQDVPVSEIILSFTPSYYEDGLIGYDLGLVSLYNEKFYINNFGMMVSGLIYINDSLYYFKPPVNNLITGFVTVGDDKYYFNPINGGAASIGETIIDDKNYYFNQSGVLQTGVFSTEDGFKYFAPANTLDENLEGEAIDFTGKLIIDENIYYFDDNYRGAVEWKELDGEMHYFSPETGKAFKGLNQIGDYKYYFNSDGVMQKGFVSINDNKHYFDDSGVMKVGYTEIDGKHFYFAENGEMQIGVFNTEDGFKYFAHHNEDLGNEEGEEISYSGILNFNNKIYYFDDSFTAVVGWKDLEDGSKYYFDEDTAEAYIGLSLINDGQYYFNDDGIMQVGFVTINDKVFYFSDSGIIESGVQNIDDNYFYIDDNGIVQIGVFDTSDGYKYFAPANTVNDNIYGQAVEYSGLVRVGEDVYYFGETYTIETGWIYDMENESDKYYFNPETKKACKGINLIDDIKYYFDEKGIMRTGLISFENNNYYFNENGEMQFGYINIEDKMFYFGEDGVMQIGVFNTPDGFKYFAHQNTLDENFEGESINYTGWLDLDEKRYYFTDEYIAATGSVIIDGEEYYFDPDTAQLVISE

On to `O=C(O)c1ccc(CN2C(=O)c3ccc(Cl)cc3NC(=O)[C@H]2Cc2cccnc2)cc1`, for which the outcome in the series on Clostridioides difficile was inactive. The IC50 at Toxin B worked out at 0.77 µM. Besides, the Activity result (in the series on Bifidobacterium longum; in the series on Bacteroides fragilis; in series [1]) was “Non-Toxic” each time.
As for `O=C(O)c1ccc(CN2C(=O)c3ccc(Cl)cc3NC(=O)[C@H]2Cc2ccccc2Cl)cc1`, in the series with Clostridioides difficile, the outcome was inactive. Also, on Toxin B, the half-inhibitory concentration (IC50) was determined as 2.3 µM. The Activity entry (in the series on Bifidobacterium longum; in the series with Bacteroides fragilis; in series [1]) was “Non-Toxic” in each case.
Regarding `O=C(Nc1cccnc1)c1ccc(CN2C(=O)c3ccc(Cl)cc3NC(=O)[C@H]2Cc2cccnc2)cc1`, the result in the series with Clostridioides difficile was inactive. Besides, the IC50 at Toxin B was above 80 µM. Besides, the Activity entry (with Bifidobacterium longum; with Bacteroides fragilis; in series [1]) was “Non-Toxic” each time.
`O=C(O)c1ccc(CN2C(=O)c3ccc(Cl)cc3NC(=O)[C@H]2Cc2cccc(Cl)c2)cc1`: the result with Clostridioides difficile was inactive. For the same compound, the IC50 on Toxin B was determined as 1.6 µM. Besides, the Activity result (in the series with Bifidobacterium longum; with Bacteroides fragilis; in series [1]) was “Non-Toxic” throughout.
Turning to `O=C(O)c1ccc(CN2C(=O)c3ccc(F)cc3NC(=O)[C@H]2Cc2cccnc2)cc1`, the outcome in the series with Clostridioides difficile was inactive. In addition, the IC50 at Toxin B came out at 8.6 µM. The Activity result (with Bifidobacterium longum; with Bacteroides fragilis; in series [1]) was “Non-Toxic” throughout.
Turning to `O=C(O)c1ccc(CN2C(=O)c3cc(Cl)ccc3NC(=O)[C@H]2Cc2cccnc2)cc1`, the outcome with Clostridioides difficile was inactive. Moreover, at Toxin B, the IC50 was above 80 µM. Moreover, the Activity result (with Bifidobacterium longum; in the series on Bacteroides fragilis; in series [1]) was “Non-Toxic” in each case.
As for `O=C(O)c1ccc(CN2C(=O)c3ccc(Cl)cc3NC(=O)C2Cc2cnccn2)cc1` (racemic), the outcome in the series with Clostridioides difficile was inactive. Further, at Toxin B, the half-maximal inhibitory concentration (IC50) was found to be 3.1 µM. Also, the Activity result (with Bifidobacterium longum; in the series with Bacteroides fragilis; in series [1]) was “Non-Toxic” each time.
Turning to `O=C(O)c1ccc(CN2C(=O)c3ccc(Cl)cc3NC(=O)[C@H]2Cc2ccc(O)cc2)cc1`, in the series on Clostridioides difficile, the outcome was inactive. Further, on Toxin B, the IC50 amounted to 2 µM. Also, the Activity entry (in the series on Bifidobacterium longum; in the series with Bacteroides fragilis; in series [1]) was “Non-Toxic” throughout.
As for `O=C(O)c1ccc(CN2C(=O)c3cccc(Cl)c3NC(=O)[C@H]2Cc2cccnc2)cc1`, the result with Clostridioides difficile was inactive. At Toxin B, the IC50 is 69 µM. In addition, the Activity result (in the series on Bifidobacterium longum; in the series with Bacteroides fragilis; in series [1]) was “Non-Toxic” throughout.
As for `O=C(O)c1ccc(CN2C(=O)c3ccc(Cl)cc3NC(=O)[C@H]2Cc2ccc(Cl)cc2)cc1`, in the series with Clostridioides difficile, the outcome was inactive. Moreover, the IC50 on Toxin B came to 17 µM. Moreover, the Activity entry (in the series with Bifidobacterium longum; in the series on Bacteroides fragilis; in series [1]) was “Non-Toxic” in each case.
Regarding `Cc1ccccc1C[C@@H]1C(=O)Nc2cc(Cl)ccc2C(=O)N1Cc1ccc(C(=O)O)cc1`, the result with Clostridioides difficile was inactive. At Toxin B, the IC50 stood at 3.9 µM. Moreover, the Activity entry (with Bifidobacterium longum; in the series on Bacteroides fragilis; in series [1]) was “Non-Toxic” in each case.
In the case of `CC(C)C[C@@H]1C(=O)Nc2cc(Cl)ccc2C(=O)N1Cc1ccc(C(=O)O)cc1`, the result with Clostridioides difficile was inactive. Besides, the IC50 at Toxin B was above 80 µM. Also, the Activity result (in the series with Bifidobacterium longum; in the series on Bacteroides fragilis; in series [1]) was “Non-Toxic” in each case.
In the case of `O=C(O)c1ccc(CN2C(=O)c3ccc(Cl)cc3NC(=O)[C@H]2Cc2nccs2)cc1`, the result in the series with Clostridioides difficile was inactive. Further, the IC50 at Toxin B worked out at 2.3 µM. The Activity result (with Bifidobacterium longum; with Bacteroides fragilis; in series [1]) was “Non-Toxic” throughout.
Turning to `O=C(O)c1ccc(CN2C(=O)c3ccc(Cl)cc3NC(=O)[C@@H]2Cc2ccccn2)cc1`, the result with Clostridioides difficile was inactive. Moreover, at Toxin B, the IC50 stood at 0.5 µM. The Activity result (with Bifidobacterium longum; in the series with Bacteroides fragilis; in series [1]) was “Non-Toxic” in each case.
Turning to `O=C(O)c1ccc(CN2C(=O)c3ccccc3NC(=O)[C@H]2Cc2ccc(Cl)c(Cl)c2)cc1`, in the series with Clostridioides difficile, the result was inactive. Further, the IC50 on Toxin B came out at 2.1 µM. Besides, the Activity result (in the series on Bifidobacterium longum; in the series with Bacteroides fragilis; in series [1]) was “Non-Toxic” each time.
As to `O=C(O)c1ccc(CN2C(=O)c3ccc(Cl)cc3NC(=O)[C@H]2Cc2ccccn2)cc1`, the outcome with Clostridioides difficile was inactive. Further, the IC50 on Toxin B stood at 0.24 µM. Also, the Activity result (with Bifidobacterium longum; with Bacteroides fragilis; in series [1]) was “Non-Toxic” each time.
With `O=C(O)c1ccc(CN2C(=O)c3ccc(Cl)cc3NC(=O)[C@@H]2Cc2ccc(O)cc2)cc1`, the outcome in the series with Clostridioides difficile was inactive. For the same compound, the half-maximal inhibitory concentration (IC50) on Toxin B is 16 µM. Further, the Activity result (in the series on Bifidobacterium longum; with Bacteroides fragilis; in series [1]) was “Non-Toxic” throughout.
As for `CN1C(=O)[C@@H](Cc2cccnc2)N(Cc2ccc(C(=O)O)cc2)C(=O)c2ccc(Cl)cc21`, in the series on Clostridioides difficile, the result was inactive. On Toxin B, the IC50 was above 80 µM. For the same compound, the Activity entry (with Bifidobacterium longum; in the series with Bacteroides fragilis; in series [1]) was “Non-Toxic” each time.
For `O=C(O)c1ccc(CN2C(=O)c3ccc(Cl)cc3NC(=O)[C@H]2CCc2ccccc2)cc1`, the outcome in the series with Clostridioides difficile was inactive. Further, the IC50 at Toxin B was determined as 23 µM. Moreover, the Activity result (with Bifidobacterium longum; with Bacteroides fragilis; in series [1]) was “Non-Toxic” in each case.
On to `O=C(O)c1ccc(CN2C(=O)c3ccc(Cl)cc3NC(=O)[C@@H]2Cc2ccc(Cl)c(Cl)c2)cc1`, for which the result with Clostridioides difficile was inactive. Besides, the IC50 at Toxin B worked out at 2.1 µM. Also, the Activity result (in the series with Bifidobacterium longum; in the series with Bacteroides fragilis; in series [1]) was “Non-Toxic” in each case.
For `O=C(O)c1ccc(CN2C(=O)c3ccc(Cl)cc3NC(=O)[C@H]2c2ccccc2)cc1`, the result with Clostridioides difficile was inactive. Also, the IC50 on Toxin B was above 80 µM. The Activity result (with Bifidobacterium longum; in the series with Bacteroides fragilis; in series [1]) was “Non-Toxic” throughout.
As for `COC(=O)c1ccc(CN2C(=O)c3ccc(Cl)cc3NC(=O)[C@H]2Cc2cccnc2)cc1`, in the series on Clostridioides difficile, the result was inactive. Also, the IC50 on Toxin B was above 80 µM. Further, the Activity result (with Bifidobacterium longum; with Bacteroides fragilis; in series [1]) was “Non-Toxic” throughout.
Consider `C[C@@H]1C(=O)Nc2cc(Cl)ccc2C(=O)N1Cc1ccc(C(=O)O)cc1`, for which the outcome with Clostridioides difficile was inactive. In addition, the IC50 on Toxin B stood at 21 µM. In addition, the Activity result (with Bifidobacterium longum; in the series on Bacteroides fragilis; in series [1]) was “Non-Toxic” each time.
